The values that follow come from ChEMBL document CHEMBL1135457 (J Med Chem, 2002).

The target of one assay is T1, Progesterone receptor (Homo sapiens, UniProt P06401).
T1 sequence (P06401 whole entry): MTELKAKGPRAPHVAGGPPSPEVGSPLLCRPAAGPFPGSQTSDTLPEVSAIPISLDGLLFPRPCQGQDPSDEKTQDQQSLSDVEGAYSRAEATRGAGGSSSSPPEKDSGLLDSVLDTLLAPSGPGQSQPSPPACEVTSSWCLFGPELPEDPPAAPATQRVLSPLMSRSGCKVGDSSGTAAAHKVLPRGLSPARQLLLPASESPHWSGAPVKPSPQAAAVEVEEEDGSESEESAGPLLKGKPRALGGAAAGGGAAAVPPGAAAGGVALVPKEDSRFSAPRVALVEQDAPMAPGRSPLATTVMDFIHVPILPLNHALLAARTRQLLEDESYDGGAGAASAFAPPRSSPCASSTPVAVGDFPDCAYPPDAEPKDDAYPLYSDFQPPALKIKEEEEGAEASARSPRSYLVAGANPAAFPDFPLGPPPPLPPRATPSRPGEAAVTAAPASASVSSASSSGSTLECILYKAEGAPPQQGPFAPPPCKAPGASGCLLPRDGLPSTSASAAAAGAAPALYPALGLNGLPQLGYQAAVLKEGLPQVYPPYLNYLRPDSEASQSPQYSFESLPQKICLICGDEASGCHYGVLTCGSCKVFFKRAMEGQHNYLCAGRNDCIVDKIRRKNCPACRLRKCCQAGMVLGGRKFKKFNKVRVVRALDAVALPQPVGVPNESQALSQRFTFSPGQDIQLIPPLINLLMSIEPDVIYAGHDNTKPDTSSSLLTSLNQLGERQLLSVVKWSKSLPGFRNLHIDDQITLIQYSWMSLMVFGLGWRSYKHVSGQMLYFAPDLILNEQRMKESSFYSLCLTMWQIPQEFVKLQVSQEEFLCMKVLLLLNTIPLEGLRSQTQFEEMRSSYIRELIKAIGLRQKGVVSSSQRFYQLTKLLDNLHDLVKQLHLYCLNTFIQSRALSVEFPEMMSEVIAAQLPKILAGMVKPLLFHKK
The assay is described as follows: Displacement of radioligand from human Progesterone receptor.

Assay [1] addresses T2, Estrogen receptor beta (Homo sapiens, UniProt Q92731). The assay is described as follows: Displacement of radioligand from human ER beta.
For another assay, the target named is T3, Androgen receptor (Homo sapiens, UniProt P10275).
T3 sequence (P10275 whole entry): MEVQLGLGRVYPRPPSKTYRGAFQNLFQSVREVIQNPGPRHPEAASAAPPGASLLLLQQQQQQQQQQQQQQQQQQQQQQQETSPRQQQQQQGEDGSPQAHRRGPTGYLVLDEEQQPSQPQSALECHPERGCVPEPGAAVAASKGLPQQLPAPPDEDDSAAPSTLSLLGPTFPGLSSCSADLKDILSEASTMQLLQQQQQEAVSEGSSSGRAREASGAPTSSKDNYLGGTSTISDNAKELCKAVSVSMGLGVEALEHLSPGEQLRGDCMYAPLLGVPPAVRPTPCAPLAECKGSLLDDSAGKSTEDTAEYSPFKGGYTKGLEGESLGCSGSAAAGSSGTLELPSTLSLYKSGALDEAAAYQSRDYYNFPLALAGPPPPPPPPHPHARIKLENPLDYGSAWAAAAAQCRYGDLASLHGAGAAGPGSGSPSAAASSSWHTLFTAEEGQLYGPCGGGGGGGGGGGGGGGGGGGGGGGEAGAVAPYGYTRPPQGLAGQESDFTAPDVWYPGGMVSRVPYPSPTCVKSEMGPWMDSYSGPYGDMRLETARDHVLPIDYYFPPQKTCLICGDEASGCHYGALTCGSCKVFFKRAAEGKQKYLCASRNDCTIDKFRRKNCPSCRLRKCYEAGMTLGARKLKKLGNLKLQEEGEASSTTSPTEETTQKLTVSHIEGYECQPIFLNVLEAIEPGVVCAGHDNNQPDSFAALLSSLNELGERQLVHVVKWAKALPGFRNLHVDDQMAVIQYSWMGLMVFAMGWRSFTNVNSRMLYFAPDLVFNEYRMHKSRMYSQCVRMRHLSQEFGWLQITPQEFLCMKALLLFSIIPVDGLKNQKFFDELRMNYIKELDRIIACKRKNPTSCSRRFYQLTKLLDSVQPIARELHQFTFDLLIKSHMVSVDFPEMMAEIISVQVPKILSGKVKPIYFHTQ
As to the kind of experiment: Displacement of [3H]DHT from human Androgen receptor.

The target of a further assay is T4, Glucocorticoid receptor (Homo sapiens, UniProt P04150).
T4 sequence (P04150 whole entry): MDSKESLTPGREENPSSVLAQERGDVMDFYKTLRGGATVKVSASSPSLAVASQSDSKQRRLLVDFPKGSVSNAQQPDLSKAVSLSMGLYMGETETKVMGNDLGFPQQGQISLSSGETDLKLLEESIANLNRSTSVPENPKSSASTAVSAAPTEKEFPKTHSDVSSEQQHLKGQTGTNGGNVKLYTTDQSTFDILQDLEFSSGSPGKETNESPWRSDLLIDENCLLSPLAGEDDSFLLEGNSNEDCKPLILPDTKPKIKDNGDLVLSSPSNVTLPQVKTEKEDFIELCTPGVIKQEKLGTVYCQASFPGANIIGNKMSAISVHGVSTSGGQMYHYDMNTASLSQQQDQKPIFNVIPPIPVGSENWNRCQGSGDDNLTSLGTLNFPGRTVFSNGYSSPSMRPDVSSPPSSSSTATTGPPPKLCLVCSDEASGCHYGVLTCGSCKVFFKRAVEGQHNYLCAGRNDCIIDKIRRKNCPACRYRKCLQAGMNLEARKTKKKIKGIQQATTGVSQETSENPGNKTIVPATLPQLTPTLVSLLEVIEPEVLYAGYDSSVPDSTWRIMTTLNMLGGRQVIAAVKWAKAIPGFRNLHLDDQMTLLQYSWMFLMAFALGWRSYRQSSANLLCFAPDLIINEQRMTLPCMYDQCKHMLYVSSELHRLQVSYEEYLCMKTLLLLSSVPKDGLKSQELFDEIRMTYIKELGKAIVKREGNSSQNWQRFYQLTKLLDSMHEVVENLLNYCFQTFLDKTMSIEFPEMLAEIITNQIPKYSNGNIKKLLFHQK
The assay is described as follows: Displacement of 10 nM [3H]dexamethasone from human Glucocorticoid receptor.

For assay [2], the target named is T5, Progesterone receptor (Homo sapiens) (UniProt P06401).
T5 sequence (whole entry): T1 sequence (P06401 whole entry)
Description: (§1) Antagonist activity against human Progesterone receptor by displacement of radioligand

The target of assay [3] is T6, Mineralocorticoid receptor (Homo sapiens) (UniProt P08235).
T6 sequence (whole entry): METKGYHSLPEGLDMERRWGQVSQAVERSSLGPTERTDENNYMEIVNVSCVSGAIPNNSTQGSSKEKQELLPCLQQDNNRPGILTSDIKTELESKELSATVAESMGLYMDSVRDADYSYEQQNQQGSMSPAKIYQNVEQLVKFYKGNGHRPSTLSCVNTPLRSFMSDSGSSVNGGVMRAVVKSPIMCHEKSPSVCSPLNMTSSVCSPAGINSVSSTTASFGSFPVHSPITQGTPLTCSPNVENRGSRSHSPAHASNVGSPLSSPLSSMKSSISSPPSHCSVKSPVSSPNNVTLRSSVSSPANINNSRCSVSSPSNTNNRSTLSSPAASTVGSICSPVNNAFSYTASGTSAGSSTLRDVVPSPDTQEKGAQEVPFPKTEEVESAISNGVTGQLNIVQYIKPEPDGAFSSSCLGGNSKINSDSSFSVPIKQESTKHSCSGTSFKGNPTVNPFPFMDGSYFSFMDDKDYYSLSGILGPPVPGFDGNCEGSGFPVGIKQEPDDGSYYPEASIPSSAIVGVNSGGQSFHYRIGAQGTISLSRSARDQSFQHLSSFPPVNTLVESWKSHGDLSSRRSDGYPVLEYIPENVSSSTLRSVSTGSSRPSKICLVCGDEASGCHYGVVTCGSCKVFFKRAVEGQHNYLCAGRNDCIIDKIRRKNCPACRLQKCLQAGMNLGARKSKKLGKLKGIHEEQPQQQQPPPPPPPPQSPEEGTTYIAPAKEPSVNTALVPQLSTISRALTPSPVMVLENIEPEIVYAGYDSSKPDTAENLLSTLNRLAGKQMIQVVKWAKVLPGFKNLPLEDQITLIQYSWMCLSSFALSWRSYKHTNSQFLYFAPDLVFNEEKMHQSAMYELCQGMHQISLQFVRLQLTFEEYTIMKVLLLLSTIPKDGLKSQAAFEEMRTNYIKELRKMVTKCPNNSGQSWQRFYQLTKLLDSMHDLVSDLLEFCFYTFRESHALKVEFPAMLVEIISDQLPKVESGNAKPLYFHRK

In assay [4] the target is T7, Glucocorticoid receptor (Homo sapiens) (UniProt P04150).
T7 sequence (whole entry): T4 sequence (P04150 whole entry)
Description: (§2) Antagonist activity as displacement of 10 nM [3H]dexamethasone from human Glucocorticoid receptor

For assay [5], the target named is T7, Glucocorticoid receptor (Homo sapiens). This is another data set of the same source.
Description: as §2
The target in assay [6] is T8, Estrogen receptor (Homo sapiens) (UniProt P03372).
T8 sequence (whole entry): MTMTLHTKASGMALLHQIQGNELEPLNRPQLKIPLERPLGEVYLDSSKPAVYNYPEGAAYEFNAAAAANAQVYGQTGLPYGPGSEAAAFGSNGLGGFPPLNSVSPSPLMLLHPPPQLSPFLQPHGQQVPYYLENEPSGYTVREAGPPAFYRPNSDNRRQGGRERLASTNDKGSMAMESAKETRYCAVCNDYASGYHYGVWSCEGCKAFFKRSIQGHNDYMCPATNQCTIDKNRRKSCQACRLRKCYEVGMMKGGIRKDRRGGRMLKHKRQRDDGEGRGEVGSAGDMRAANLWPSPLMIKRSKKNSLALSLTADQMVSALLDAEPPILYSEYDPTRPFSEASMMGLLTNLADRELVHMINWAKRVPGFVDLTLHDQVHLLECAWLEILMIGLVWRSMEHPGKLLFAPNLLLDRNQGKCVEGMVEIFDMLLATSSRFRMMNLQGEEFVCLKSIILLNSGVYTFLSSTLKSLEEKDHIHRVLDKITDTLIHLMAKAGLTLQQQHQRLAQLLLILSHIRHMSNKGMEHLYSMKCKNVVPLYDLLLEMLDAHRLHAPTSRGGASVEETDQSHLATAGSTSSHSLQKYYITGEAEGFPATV
As to the kind of experiment: Displacement of radioligand from human Estrogen receptor alpha, percent inhibition at 10 uM.

In assay [7] the target is T2, Estrogen receptor beta. The assay is described as follows: Displacement of radioligand from human Estrogen receptor beta, percent inhibition at 10 uM.
For assay [8], the target named is T6, Mineralocorticoid receptor (Homo sapiens). This is another data set of the same source.
Assay [9] has as its target T5, Progesterone receptor (Homo sapiens). The source holds these as a separate data set.
Description: as §1
The target of the next assay is T9, Estrogen receptor (Homo sapiens, UniProt P03372).
T9 sequence (P03372 whole entry): T8 sequence (whole entry)
As to the kind of experiment: Displacement of radioligand from human Estrogen receptor alpha.

The target of assay [10] is T6, Mineralocorticoid receptor (Homo sapiens). The assay is described as follows: Antagonist activity against human mineralocorticoid receptor as displacement of radioligand, percent […]. Type of assay: functional.
For assay [11], the target named is T5, Progesterone receptor (Homo sapiens). Particulars: 1 uM.
Description: Antagonist activity against human Progesterone receptor as displacement of radioligand, percent inhibition at 1 uM

T2 sequence (Q92731 whole entry): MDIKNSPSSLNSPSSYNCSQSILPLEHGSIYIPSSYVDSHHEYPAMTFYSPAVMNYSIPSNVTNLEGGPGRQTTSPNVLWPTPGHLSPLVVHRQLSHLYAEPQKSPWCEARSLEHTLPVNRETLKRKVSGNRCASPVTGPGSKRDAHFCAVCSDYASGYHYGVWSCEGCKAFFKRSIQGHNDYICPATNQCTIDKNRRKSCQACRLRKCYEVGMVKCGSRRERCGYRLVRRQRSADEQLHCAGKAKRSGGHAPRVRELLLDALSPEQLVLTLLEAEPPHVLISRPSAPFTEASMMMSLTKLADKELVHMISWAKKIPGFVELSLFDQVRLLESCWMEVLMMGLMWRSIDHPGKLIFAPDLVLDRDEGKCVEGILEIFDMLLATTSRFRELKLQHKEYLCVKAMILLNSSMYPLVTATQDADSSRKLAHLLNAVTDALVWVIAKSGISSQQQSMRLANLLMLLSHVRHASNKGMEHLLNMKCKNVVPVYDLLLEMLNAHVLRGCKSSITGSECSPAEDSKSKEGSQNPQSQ

Consider `COc1ccc2c(c1)CCC1=CC(=O)CCC12Cc1ccccc1` (single isomer, unassigned; form 1) [listing 1 of 2 here], for which the Ki was greater than 10 µM on Progesterone receptor, greater than 10 µM on Estrogen receptor beta [1], 0.69 µM on Androgen receptor and greater than 10 µM on Glucocorticoid receptor.
With `COc1ccc2c(c1)CCC1=CC(=O)CCC12Cc1ccccc1` (single isomer, unassigned; form 2) [listing 1 of 2 here], the Kif in assay [2], in [3] and in assay [4] was greater than 1000 nM in each case.
As for `O=C1C=C2CCc3cc(O)ccc3C2(Cc2ccccc2)CC1` (single isomer, unassigned; form 1) [listing 1 of 2 here], the Kif in assay [5], in assay [8] and in assay [9] was greater than 1000 nM in each case. The inhibition in assay [6] is 36%; on Estrogen receptor beta [7], 24%.
As to `COc1ccc2c(c1)CCC1=CC(=O)CCC12Cc1ccccc1` (single isomer, unassigned; form 2) [listing 2 of 2 here], the Ki on Progesterone receptor was greater than 10 µM; at Estrogen receptor, greater than 10 µM; on Estrogen receptor beta [1], greater than 10 µM; at Androgen receptor, 0.054 µM; on Glucocorticoid receptor, greater than 10 µM.
`O=C1C=C2CCc3cc(O)ccc3C2(Cc2ccccc2)CC1` (single isomer, unassigned; form 1) [listing 2 of 2 here]: the Ki on Progesterone receptor, at Androgen receptor and at Glucocorticoid receptor was greater than 10 µM in each case.
`O=C1C=C2CCc3cc(O)ccc3C2(Cc2ccccc2)CC1` (single isomer, unassigned; form 2) [listing 1 of 2 here]: the figures for the inhibition (in assay [6]; at Estrogen receptor beta [7]) were 70% and 39%, respectively. Besides, the Kif in [8], in assay [4] and in assay [9] was greater than 1000 nM in each case.
In the case of `CC#C[C@]1(O)CC[C@H]2[C@@H]3CCC4=CC(=O)CCC4=C3[C@@H](c3ccc(N(C)C)cc3)C[C@@]21C`, the inhibition was determined as 44% in assay [6], 69.7% in assay [10], 92% at Estrogen receptor beta [7] and 100% in assay [11]. The figures for the Kif in assay [3], in assay [4] and in assay [9] were less than 10 nM, 2 nM and 11.8 nM, respectively.
For the compound `COc1ccc2c(c1)CCC1=CC(=O)CCC12Cc1ccccc1` (single isomer, unassigned; form 1) [listing 2 of 2 here], in assay [6], the inhibition was 27%. For the same compound, the Kif in assay [8], in assay [4] and in assay [9] was greater than 1000 nM each time.
In the case of `O=C1C=C2CCc3cc(O)ccc3C2(Cc2ccccc2)CC1` (single isomer, unassigned; form 2) [listing 2 of 2 here], the inhibition constant (Ki) at Progesterone receptor was greater than 10 µM; at Androgen receptor it was 0.18 µM; at Glucocorticoid receptor it was 0.157 µM.
